{
  "source": "paper PMC6443244",
  "about": "(Cell chemical biology, 2016)",
  "target": "Fatty acid synthase (FASN) (Homo sapiens, UniProt P49327)",
  "sequence (P49327 whole entry)": "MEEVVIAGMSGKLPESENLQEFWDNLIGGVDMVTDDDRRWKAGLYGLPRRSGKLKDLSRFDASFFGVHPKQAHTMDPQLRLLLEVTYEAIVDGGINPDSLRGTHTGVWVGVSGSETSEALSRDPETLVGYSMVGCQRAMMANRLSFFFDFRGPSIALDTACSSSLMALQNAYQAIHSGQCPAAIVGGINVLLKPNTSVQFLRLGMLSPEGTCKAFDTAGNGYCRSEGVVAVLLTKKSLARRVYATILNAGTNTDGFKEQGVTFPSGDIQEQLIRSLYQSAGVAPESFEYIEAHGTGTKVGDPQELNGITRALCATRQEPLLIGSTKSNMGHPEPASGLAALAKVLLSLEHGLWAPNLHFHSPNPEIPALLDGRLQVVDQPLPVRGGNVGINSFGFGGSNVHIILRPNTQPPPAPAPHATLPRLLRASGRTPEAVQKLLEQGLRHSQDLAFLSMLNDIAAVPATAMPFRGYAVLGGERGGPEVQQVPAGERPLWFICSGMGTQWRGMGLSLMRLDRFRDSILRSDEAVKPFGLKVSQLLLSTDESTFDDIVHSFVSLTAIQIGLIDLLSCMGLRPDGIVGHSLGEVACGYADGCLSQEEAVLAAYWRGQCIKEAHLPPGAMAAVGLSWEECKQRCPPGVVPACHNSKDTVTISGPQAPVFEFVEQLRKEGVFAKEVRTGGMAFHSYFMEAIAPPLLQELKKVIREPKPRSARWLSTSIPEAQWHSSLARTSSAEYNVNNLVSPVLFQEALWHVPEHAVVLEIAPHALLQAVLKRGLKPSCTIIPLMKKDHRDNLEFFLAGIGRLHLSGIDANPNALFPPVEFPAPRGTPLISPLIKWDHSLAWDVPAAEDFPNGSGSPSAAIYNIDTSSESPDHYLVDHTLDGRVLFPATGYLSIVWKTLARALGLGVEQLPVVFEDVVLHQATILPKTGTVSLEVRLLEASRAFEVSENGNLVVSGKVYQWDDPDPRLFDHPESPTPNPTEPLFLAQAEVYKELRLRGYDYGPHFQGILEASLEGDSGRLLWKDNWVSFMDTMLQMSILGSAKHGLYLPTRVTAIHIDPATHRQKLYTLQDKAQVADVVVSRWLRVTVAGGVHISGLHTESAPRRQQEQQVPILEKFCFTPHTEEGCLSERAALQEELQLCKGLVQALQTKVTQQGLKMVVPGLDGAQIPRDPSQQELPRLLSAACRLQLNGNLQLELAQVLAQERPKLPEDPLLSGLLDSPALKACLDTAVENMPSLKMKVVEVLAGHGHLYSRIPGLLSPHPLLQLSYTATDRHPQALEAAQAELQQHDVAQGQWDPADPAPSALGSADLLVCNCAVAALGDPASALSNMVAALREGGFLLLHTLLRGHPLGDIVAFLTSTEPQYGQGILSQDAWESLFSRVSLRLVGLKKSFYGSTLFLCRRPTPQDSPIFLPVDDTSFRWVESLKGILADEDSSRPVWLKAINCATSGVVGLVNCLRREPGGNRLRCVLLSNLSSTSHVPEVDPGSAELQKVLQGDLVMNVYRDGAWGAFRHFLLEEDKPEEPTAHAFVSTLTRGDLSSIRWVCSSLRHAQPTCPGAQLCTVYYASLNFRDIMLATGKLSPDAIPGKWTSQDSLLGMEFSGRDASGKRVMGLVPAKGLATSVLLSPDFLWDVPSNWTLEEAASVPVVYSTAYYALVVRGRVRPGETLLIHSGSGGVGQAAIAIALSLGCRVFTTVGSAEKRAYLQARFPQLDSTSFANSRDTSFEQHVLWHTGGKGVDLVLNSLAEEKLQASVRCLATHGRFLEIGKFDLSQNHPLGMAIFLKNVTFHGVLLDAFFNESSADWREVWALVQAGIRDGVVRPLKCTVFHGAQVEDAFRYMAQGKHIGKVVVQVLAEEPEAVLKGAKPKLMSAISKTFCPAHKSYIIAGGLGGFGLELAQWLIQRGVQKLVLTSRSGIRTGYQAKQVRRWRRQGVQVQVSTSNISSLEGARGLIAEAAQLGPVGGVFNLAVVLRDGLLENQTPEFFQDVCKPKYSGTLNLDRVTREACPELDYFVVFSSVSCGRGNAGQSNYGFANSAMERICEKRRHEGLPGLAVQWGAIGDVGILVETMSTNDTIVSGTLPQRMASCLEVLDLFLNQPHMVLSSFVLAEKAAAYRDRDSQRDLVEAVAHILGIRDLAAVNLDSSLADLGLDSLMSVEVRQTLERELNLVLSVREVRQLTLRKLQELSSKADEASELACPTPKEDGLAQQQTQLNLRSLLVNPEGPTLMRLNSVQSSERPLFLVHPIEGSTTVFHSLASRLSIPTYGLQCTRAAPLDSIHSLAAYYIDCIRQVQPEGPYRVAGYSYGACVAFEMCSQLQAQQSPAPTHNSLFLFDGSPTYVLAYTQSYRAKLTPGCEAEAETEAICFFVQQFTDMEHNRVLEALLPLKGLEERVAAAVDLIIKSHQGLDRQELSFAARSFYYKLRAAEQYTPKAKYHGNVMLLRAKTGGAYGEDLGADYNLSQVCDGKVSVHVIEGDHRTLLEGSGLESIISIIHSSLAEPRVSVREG",
  "assay": "[…]malonyl-CoA incorporation into fatty acids by purified FASN",
  "format": "biochemical",
  "data": [
    {"smiles": "Cc1sc2ncnc(NC3CCN(Cc4ccccc4)C3)c2c1C", "note": "(stereo not shown) [Fasnall]", "values": [
      {"measurement": "IC50", "result": 3.71, "unit": "µM"}
    ]}
  ]
}
